Data on 2 compounds can be found in patent US6849272B1, “Endosomolytic agents and cell delivery systems” (Massachusetts Institute of Technology, priority 1999, dated 2005).

The test system of data set [1] is cells. The settings on record: in vitro; cited from earlier work.
Data set [2] concerns cells. In kind it is cell-based. The source says: Another synthetic polymer that has been recently evaluated for its ability to mediate gene transfer is polyethyleneimine (PEI) which contains primary, secondary, and tertiary amines (Abdallah, B.; Hassan, A.; Benoist; Goula, D.; Behr, J. P.; Demeneix, B. A. Human Gene Therapy 1996, 7, 1947; Boussif, O.; Lezoualc'h, F.; Zanta, M. A.; Mergny, M. D., Scherman, D.; Demeneix, B.; Behr, J. P. Proc. Natl. Acad. Sci. USA 1995, 92, 7297). The advantage of PEI over polylysine as a mediator for gene transfer is that it contains a built-in mechanism for endosome escape. The overall protonation of PEI at pH=7 is approximately 20% whereas the overall protonation at pH=5 is approximately 45% (Suh, J.; Paik, H. J.; Hwang, B. K. Bioorg. Chem. 1994, 22, 318). […] In fact, PEI is capable of mediating gene transfer equal to the best lipid systems.

With `OCC(O)CO` [glycerol], the “concentration required to enhance transfection” value in the data set with cells [1] is recorded as 1-1.5 M.

On to polyethyleneimine [PEI], for which, in the data set on cells [2], the “toxicity to cells in vitro” value is on record as “toxic to cells in vitro”.
